Measured values: patent US9895466B2, “Liposomal drug delivery system for bone cements” (UNIVERSITY COLLEGE CARDIFF CONSULTANTS LIMITED, priority 2013, dated 2018)

Test system: Staphylococcus aureus (S. aureus)
Assay: Microbial growth and zones of inhibition on agar plates
Type: cell-based
Conditions: 24 hours at 37° C.
Protocol: 10 mm diameter by 2 mm thick cylindrical bone cement samples were prepared as previously described for Palacos R, Palacos R+G and Palacos R with 200 mg of L61 liposomal gentamicin sulphate. Tryptone soya agar (TSA) was prepared by dissolving 40 g of tryptone soy agar medium in one liter of distilled water. The solution was boiled for one minute then sterilized in an autoclave at 121° C. for 15 minutes. The solution was allowed to cool to 45-50° C. before being dispensed into petri dishes (9 cm diameter). The petri dishes were cooled to room temperature then stored at 8-15° C. until use. Staphylococcus aureus (S. aureus) was cultured in tryptic soy broth (TSB) for 18-24 hours at 37° C. A sterile cotton swab was used to spread the inoculum across the TSA petri dish. The petri dish was turned by 60° and the process was repeated to ensure complete surface coverage. A 10 ug gentamicin standard disc was placed on the petri dish as a control and pressure was applied to the top of the disc to ensure full surface contact. […] The petri dish was then incubated at 37° C. for 18-24 hours, after which, the zones of inhibition around the samples and gentamicin disc were measured. Images of the zones of inhibition were taken and measured using ImageJ software (National Institutes of Health, Maryland, USA). The zones of inhibition were measured as the radius of the zone minus the radius of the sample. […]

## gentamicin sulphate
  Zone of inhibition against S. aureus: created a zone of inhibition
